Columns and labels:
[1] = target: T1, hM3Dq (Homo sapiens, UniProt P20309, Y149C/A239G); test: [3H]clozapine competition, HEK-293 membranes; type: binding; settings: 2.5 nM [3H]clozapine, 50 mM Tris-HCl pH 7.4, 10 mM MgCl2, RT, 2 h
T1 construct: gene CHRM3; human M3 muscarinic receptor DREADD; AAV plasmid Addgene #89149; transiently expressed in HEK-293 cells

[2] = target: T2, hM4Di (Homo sapiens, UniProt P08173, Y113C/A203G); test: [3H]clozapine competition, HEK-293 membranes; type: binding; settings: 2.5 nM [3H]clozapine, 50 mM Tris-HCl pH 7.4, 10 mM MgCl2, RT, 2 h
T2 construct: gene CHRM4; human M4 muscarinic receptor DREADD; AAV plasmid Addgene #89150; transiently expressed in HEK-293 cells; docking model prints Y113G/A203G, the standard DREADD is Y113C/A203G
T2 sequence (P08173 1-479 Y113C/A203G): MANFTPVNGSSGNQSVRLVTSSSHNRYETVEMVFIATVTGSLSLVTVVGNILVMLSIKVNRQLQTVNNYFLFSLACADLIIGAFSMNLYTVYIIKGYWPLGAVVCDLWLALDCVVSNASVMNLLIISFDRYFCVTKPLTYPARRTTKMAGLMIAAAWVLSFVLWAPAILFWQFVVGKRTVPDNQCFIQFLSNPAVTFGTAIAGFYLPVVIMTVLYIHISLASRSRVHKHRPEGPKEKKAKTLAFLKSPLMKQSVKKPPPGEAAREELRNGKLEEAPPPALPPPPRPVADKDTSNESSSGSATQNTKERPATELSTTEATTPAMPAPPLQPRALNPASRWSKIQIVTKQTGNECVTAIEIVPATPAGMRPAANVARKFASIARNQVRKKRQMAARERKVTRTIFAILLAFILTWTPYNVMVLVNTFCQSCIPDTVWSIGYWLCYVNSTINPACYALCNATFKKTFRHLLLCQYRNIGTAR

[3] = target: T2, hM4Di; test: BRET Galpha-o1 activation, HEK-293; type: cell-based; settings: agonist; PBS; Galpha-Rluc8, beta1, gamma2-mVenus
[4] = target: T3, hM3Dq (Homo sapiens, UniProt P20309, A239G/Y149C); test: [3H]clozapine competition, HEK-293 membranes; type: binding
T3 construct: gene CHRM3; human M3 muscarinic receptor DREADD; AAV plasmid Addgene #89149; transiently expressed in HEK-293 cells
T3 sequence (P20309 whole entry Y149C/A239G): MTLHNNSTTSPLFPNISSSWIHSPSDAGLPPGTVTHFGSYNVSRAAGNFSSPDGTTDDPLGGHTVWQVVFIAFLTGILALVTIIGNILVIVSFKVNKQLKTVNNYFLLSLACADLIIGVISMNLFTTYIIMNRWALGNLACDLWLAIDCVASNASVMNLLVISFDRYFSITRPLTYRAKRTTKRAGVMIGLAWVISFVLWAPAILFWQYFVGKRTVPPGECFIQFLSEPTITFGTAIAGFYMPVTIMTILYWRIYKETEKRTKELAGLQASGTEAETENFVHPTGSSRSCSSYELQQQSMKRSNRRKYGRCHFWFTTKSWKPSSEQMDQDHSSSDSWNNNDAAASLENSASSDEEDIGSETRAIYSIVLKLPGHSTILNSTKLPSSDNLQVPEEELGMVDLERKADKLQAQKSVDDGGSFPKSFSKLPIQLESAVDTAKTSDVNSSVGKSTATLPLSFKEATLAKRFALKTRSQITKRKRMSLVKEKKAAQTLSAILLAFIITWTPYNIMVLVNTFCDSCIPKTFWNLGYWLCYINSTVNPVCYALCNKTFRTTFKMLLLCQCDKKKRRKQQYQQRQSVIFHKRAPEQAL

[5] = target: T4, hM4Di (Homo sapiens, UniProt P08173, A203G/Y113C); test: [3H]clozapine competition, HEK-293 membranes; type: binding
T4 construct: gene CHRM4; human M4 muscarinic receptor DREADD; AAV plasmid Addgene #89150; transiently expressed in HEK-293 cells; docking model prints Y113G/A203G, the standard DREADD is Y113C/A203G
T4 sequence (P08173 1-479 Y113C/A203G): T2 sequence (P08173 1-479 Y113C/A203G)

T1 sequence (P20309 whole entry Y149C/A239G): as above

SMILES | Ki [1] [µM] | Ki [2] [µM] | EC50 [3] | Ki [4] [µM] | Ki [5] [µM]
CCN1CCN(C2=Nc3cc(Cl)ccc3Nc3ccccc32)CC1 [C13, Compound 13] | 0.0043 | 0.0043 | – | – | –
CN1CCN(C2=Nc3cc(Cl)ccc3Nc3ccccc32)CC1 [CLZ, clozapine] | – | – | C21 was less potent than clozapine at Gi/o activation in cells or tissue expressing hM4Di | – | –
c1ccc2c(c1)N=C(N1CCNCC1)c1ccccc1N2 [C21, Compound 21] | – | – | C21 was less potent than clozapine at Gi/o activation in cells or tissue expressing hM4Di | 0.23 | 0.091
